According to PubChem BioAssay AID1963860 (Molecular Pharmacology Branch, DTP, NCI, 2024):
pIC50: −log10 of the molar value. The source made the active and inactive calls. Rule for the calls: active = viability on the fitted dose curve at most 10% of control; inactive = the rest.

Test system: CN0375-F725-PDC KRAS spheroid viability
Test: Anticancer human tumor CN0375-F725-PDC patient-derived colon carcinoma cell line growth inhibition [KRAS2]
Settings: spheroids with HUVEC and MSC; for pIC50: curve of first compound; for viability, T/C: stronger effect = lower value
Method in brief: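 KRAS-mutant tumor cells were grown as spheroids with HUVEC endothelial cells and human MSCs as stroma. Targeted agents were tested alone and with KRAS pathway inhibitors. Doses started at or near clinical Cmax, or 10 microM, descending half-log.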

[1] = second compound 0.1 µM, first compound 0.0316 µM
[2] = second compound 0.1 µM, first compound 0.1 µM
[3] = second compound 0.1 µM, first compound 0.316 µM
[4] = second compound 0.1 µM, first compound 1 µM
[5] = second compound 0.1 µM, first compound 3.16 µM
[6] = second compound 0.316 µM, first compound 0.0316 µM
[7] = second compound 0.316 µM, first compound 0.1 µM
[8] = second compound 0.316 µM, first compound 0.316 µM
[9] = second compound 0.316 µM, first compound 1 µM
[10] = second compound 0.316 µM, first compound 3.16 µM
[11] = second compound 1 µM, first compound 0.0316 µM
[12] = second compound 1 µM, first compound 0.1 µM
[13] = second compound 1 µM, first compound 0.316 µM
[14] = second compound 1 µM, first compound 1 µM
[15] = second compound 1 µM, first compound 3.16 µM
[16] = second compound 3.16 µM, first compound 0.0316 µM
[17] = second compound 3.16 µM, first compound 0.1 µM
[18] = second compound 3.16 µM, first compound 0.316 µM
[19] = second compound 3.16 µM, first compound 1 µM
[20] = second compound 3.16 µM, first compound 3.16 µM
[21] = second compound 10 µM, first compound 0.0316 µM
[22] = second compound 10 µM, first compound 0.1 µM
[23] = second compound 10 µM, first compound 0.316 µM
[24] = second compound 10 µM, first compound 1 µM
[25] = second compound 10 µM, first compound 3.16 µM
[26] = second compound 0.1 µM, first compound 0.01 µM
[27] = second compound 0.316 µM, first compound 0.01 µM
[28] = second compound 1 µM, first compound 0.01 µM
[29] = second compound 3.16 µM, first compound 0.01 µM
[30] = second compound 10 µM, first compound 0.01 µM
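Note: spheroids exposed to agents for 7 days.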

## Cn1nccc1Nc1nccc(-c2cc3c(s2)C(C)(C)N(CCN2CCOCC2)C3=O)n1 + CC1OCC2(CCN(c3cnc(Sc4ccnc(N)c4Cl)c(N)n3)CC2)C1N
Second compound 0.1 µM
  pIC50: 5.63
Second compound 0.316 µM
  pIC50: 5.97
Second compound 1 µM
  pIC50: 6.18
Second compound 3.16 µM
  pIC50: 6.47
Second compound 10 µM
  pIC50: 6.68
[1]
  viability, T/C: 98.5%
[2]
  viability, T/C: 83.1%
[3]
  viability, T/C: 69.8%
[4]
  viability, T/C: 58.7%
[5]
  viability, T/C: 47.5%
Second compound 0.1 µM, first compound 10 µM
  viability, T/C: 36.7%
[6]
  viability, T/C: 88.8%
[7]
  viability, T/C: 78.1%
[8]
  viability, T/C: 60.4%
[9]
  viability, T/C: 51.8%
[10]
  viability, T/C: 42.1%
Second compound 0.316 µM, first compound 10 µM
  viability, T/C: 36.3%
[11]
  viability, T/C: 81.2%
[12]
  viability, T/C: 81.9%
[13]
  viability, T/C: 60.1%
[14]
  viability, T/C: 45.3%
[15]
  viability, T/C: 37.1%
Second compound 1 µM, first compound 10 µM
  viability, T/C: 35.9%
[16]
  viability, T/C: 74.7%
[17]
  viability, T/C: 65.5%
[18]
  viability, T/C: 52.1%
[19]
  viability, T/C: 36.4%
[20]
  viability, T/C: 33.7%
Second compound 3.16 µM, first compound 10 µM
  viability, T/C: 31.5%
[21]
  viability, T/C: 62.7%
[22]
  viability, T/C: 63.3%
[23]
  viability, T/C: 42.8%
[24]
  viability, T/C: 31.9%
[25]
  viability, T/C: 28.9%
Second compound 10 µM, first compound 10 µM
  viability, T/C: 28.3%

## CC(=O)OC12COC1CC(O)C1(C)C(=O)C(O)C3=C(C)C(OC(=O)C(O)C(NC(=O)OC(C)(C)C)c4ccccc4)CC(O)(C(OC(=O)c4ccccc4)C21)C3(C)C (stereo not given) + CNCc1ccccc1-c1csc(C(C)Nc2nc(C)nc3cc(OC)c(OC)cc23)c1
Second compound 0.1 µM
  pIC50: < 5.50
Second compound 0.316 µM
  pIC50: < 5.50
Second compound 1 µM
  pIC50: < 5.50
Second compound 3.16 µM
  pIC50: > 8.00
Second compound 10 µM
  pIC50: > 8.00
[26]
  viability, T/C: 96.2%
[1]
  viability, T/C: 97.7%
[2]
  viability, T/C: 80.7%
[3]
  viability, T/C: 82.5%
[4]
  viability, T/C: 80.4%
[5]
  viability, T/C: 74.2%
[27]
  viability, T/C: 92.8%
[6]
  viability, T/C: 89.4%
[7]
  viability, T/C: 77.5%
[8]
  viability, T/C: 74.7%
[9]
  viability, T/C: 78.5%
[10]
  viability, T/C: 66.8%
[28]
  viability, T/C: 101%
[11]
  viability, T/C: 99.7%
[12]
  viability, T/C: 91.8%
[13]
  viability, T/C: 84%
[14]
  viability, T/C: 77.4%
[15]
  viability, T/C: 78%
[29]
  viability, T/C: 1.13%
[16]
  viability, T/C: 100%
[17]
  viability, T/C: 0.66%
[18]
  viability, T/C: 0.86%
[19]
  viability, T/C: 1.34%
[20]
  viability, T/C: 79.3%
[30]
  viability, T/C: 0.72%
[21]
  viability, T/C: 0.57%
[22]
  viability, T/C: 0.77%
[23]
  viability, T/C: 0.24%
[24]
  viability, T/C: 0.62%
[25]
  viability, T/C: 0.25%

## CN(C)C/C=C/C(=O)Nc1cc2c(Nc3ccc(F)c(Cl)c3)ncnc2cc1O[C@H]1CCOC1 + CNCc1ccccc1-c1csc(C(C)Nc2nc(C)nc3cc(OC)c(OC)cc23)c1
Second compound 0.1 µM
  pIC50: < 7.00
Second compound 0.316 µM
  pIC50: < 7.00
Second compound 1 µM
  pIC50: 7.11
Second compound 3.16 µM
  pIC50: 8.74
Second compound 10 µM
  pIC50: > 9.50
Second compound 0.1 µM, first compound 0.000316 µM
  viability, T/C: 97.1%
Second compound 0.1 µM, first compound 0.001 µM
  viability, T/C: 95.9%
Second compound 0.1 µM, first compound 0.00316 µM
  viability, T/C: 83.1%
[26]
  viability, T/C: 86.4%
[1]
  viability, T/C: 78.4%
[2]
  viability, T/C: 74.2%
Second compound 0.316 µM, first compound 0.000316 µM
  viability, T/C: 94.8%
Second compound 0.316 µM, first compound 0.001 µM
  viability, T/C: 88.3%
Second compound 0.316 µM, first compound 0.00316 µM
  viability, T/C: 78.3%
[27]
  viability, T/C: 74.6%
[6]
  viability, T/C: 76.1%
[7]
  viability, T/C: 70.5%
Second compound 1 µM, first compound 0.000316 µM
  viability, T/C: 76.3%
Second compound 1 µM, first compound 0.001 µM
  viability, T/C: 67.6%
Second compound 1 µM, first compound 0.00316 µM
  viability, T/C: 53.1%
[28]
  viability, T/C: 54.8%
[11]
  viability, T/C: 60.4%
[12]
  viability, T/C: 43.6%
Second compound 3.16 µM, first compound 0.000316 µM
  viability, T/C: 99.2%
Second compound 3.16 µM, first compound 0.001 µM
  viability, T/C: 102%
Second compound 3.16 µM, first compound 0.00316 µM
  viability, T/C: 0.46%
[29]
  viability, T/C: 0.32%
[16]
  outcome: active
[17]
  viability, T/C: 3.19%
Second compound 10 µM, first compound 0.000316 µM
  viability, T/C: 0.26%
Second compound 10 µM, first compound 0.001 µM
  viability, T/C: 0.23%
Second compound 10 µM, first compound 0.00316 µM
  viability, T/C: 0.35%
[30]
  viability, T/C: 0.73%
[21]
  viability, T/C: 0.29%
[22]
  viability, T/C: 0.22%
